By IC50 is commonly meant the concentration needed to halve the response being measured.

In one assay the target is T1, hT2R54 (Homo sapiens, UniProt P59534).
T1 construct: expressed in transfected cells; it overexpresses a promiscuous G protein
T1 sequence (P59534 1-338): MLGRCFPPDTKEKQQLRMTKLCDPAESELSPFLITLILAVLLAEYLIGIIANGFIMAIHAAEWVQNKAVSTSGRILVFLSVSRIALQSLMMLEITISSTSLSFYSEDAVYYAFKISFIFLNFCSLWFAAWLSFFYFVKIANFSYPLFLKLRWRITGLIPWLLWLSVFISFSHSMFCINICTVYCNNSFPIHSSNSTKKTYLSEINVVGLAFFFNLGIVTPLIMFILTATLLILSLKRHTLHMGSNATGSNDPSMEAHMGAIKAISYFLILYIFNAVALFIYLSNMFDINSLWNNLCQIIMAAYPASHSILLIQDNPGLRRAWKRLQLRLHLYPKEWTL
Description: Cell-based assay for measuring hT2R54 inhibition (FLIPR calcium, Fluo4AM, acetaminophen as bitter agonist). Particulars: Table 2; cells stably expressing hT2R54 and a promiscuous G protein; read-out: hT2R54 IC50. A digest of the protocol: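 The readout was FLIPR calcium (Fluo4AM, 10 s baseline, 3 min post-addition) in cells stably carrying hT2R54 plus a promiscuous G protein, with host cells lacking hT2R54 as counter-control. Acetaminophen concentration series were tested with and without set test-compound levels. Half-maximal block of the agonist response gave the EC50/IC50.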
As to `COc1cc2c(cc1NC(=O)CN1CCN(C(=O)CC3CCCO3)CC1)OCO2` (stereo not drawn) [compound 408], the IC50 turned out to be 880 nM.
The same measure, in the same setting: the result for `COc1cc2c(cc1NC(=O)CN1CCN(C(=O)CC3CCCCO3)CC1)OCO2` (stereo not drawn) [compound 409] reads 500 nM; that for `COc1cc2c(cc1NC(=O)CN1CCN(C(C)=O)CC1)CCC2` [compound 410], 1140 nM.
On the same count and under the same terms, the result for `CC(=O)c1cc2c(cc1NC(=O)C(C)N1CCN(C(=O)[C@@H]3CCCO3)CC1)OCCO2` (stereo partly drawn) [compound 411] reads 170 nM.
Regarding `CC(=O)c1cc2c(cc1NC(=O)C(C)N1CCN(C(=O)[C@H]3CCCO3)CC1)OCCO2` (stereo partly drawn) [compound 412], the IC50 turned out to be 170 nM.
Take `COCc1ccc(C(=O)N2CCN(C(C)C(=O)Nc3cc4c(cc3C(C)=O)OCCO4)CC2)cc1` (stereo not drawn) [compound 413]: the concentration for half-maximal inhibition (IC50) is 190 nM.
Take `CCc1cc2c(cc1NC(=O)CN1CCN(C(=O)C3CCCO3)CC1)OCO2` (stereo not drawn) [compound 414]: the IC50 turned out to be 7600 nM.

The same assay, now with this note: Table 3; cells stably expressing hT2R54 and a promiscuous G protein; read-out: hT2R54 IC50.
Regarding `CC(=O)c1cc2c(cc1NC(=O)CN1CCN(CC3CCCO3)CC1)OCO2` (stereo not drawn) [compound 415], the IC50 came out at 1300 nM.
On the same count and under the same terms, the figure for `COc1cc2c(cc1NC(=O)CN1CCN(CC3CCCO3)CC1)OCO2` (stereo not drawn) [compound 416] is 4000 nM.

The same assay, now with this note: Table 4; cells stably expressing hT2R54 and a promiscuous G protein; read-out: hT2R54 IC50.
Take `CC(=O)c1cc2c(cc1NC(=O)CN1CCCCC1)OCO2` [compound 417]: the IC50 is 439 nM.
As to `CC(=O)c1cc2c(cc1NC(=O)CN1CCC(C)CC1)OCO2` [compound 418], the IC50 was determined as 183 nM.
Still for that read-out and setting: the result for `CCOC(=O)[C@H]1CCCCN1CC(=O)Nc1cc2c(cc1C(C)=O)OCO2` [compound 419] reads 135 nM; that for `CCOC(=O)[C@H]1CCCN1CC(=O)Nc1cc2c(cc1C(C)=O)OCO2` [compound 420], 100 nM.
On to `CC(=O)c1cc2c(cc1NC(=O)CN1CCC(=O)CC1)OCO2` [compound 421], for which the IC50 was 187 nM.
The same measure, in the same setting: the result for `CC(=O)c1cc2c(cc1NC(=O)CN1CCSCC1)OCO2` [compound 422] reads 50 nM; that for `CC(=O)c1cc2c(cc1NC(=O)CN1CCOc3ccccc31)OCO2` [compound 423], 1000 nM; that for `CC(=O)c1cc2c(cc1NC(=O)CN1CCC(O)C1)OCO2` (stereo not drawn) [compound 424], 1590 nM.
Take `COCCCN(C)CC(=O)Nc1cc2c(cc1C(C)=O)OCO2` [compound 425]: the IC50 worked out at 643 nM.
Still for that read-out and setting: the figure for `COCCN(C)CC(=O)Nc1cc2c(cc1C(C)=O)OCO2` [compound 426] is 1150 nM.
On the same count and under the same terms, the figure for `CCN(CCCOC)CC(=O)Nc1cc2c(cc1C(C)=O)OCO2` [compound 427] is 373 nM.
Consider `CCOC(=O)C1CN(C(=O)OC(C)(C)C)CCN1CC(=O)Nc1cc2c(cc1C(C)=O)OCO2` (stereo not drawn) [compound 428], for which the IC50 is 650 nM.
The same measure, in the same setting: the result for `CC(=O)c1cc2c(cc1NC(=O)CN1CCCC(NC(=O)OC(C)(C)C)C1)OCO2` (stereo not drawn) [compound 429] reads 1280 nM; that for `CC(=O)c1cc2c(cc1NC(=O)CN1CCC(NC(=O)OC(C)(C)C)CC1)OCO2` [compound 430], 162 nM; that for `CC(=O)c1cc2c(cc1NC(=O)C(C)N1CCN(C(=O)OC(C)(C)C)CC1)OCO2` (stereo not drawn) [compound 431], 900 nM.
For the molecule `CC(=O)c1cc2c(cc1NC(=O)CCN1CCOCC1)OCO2` [compound 432], the IC50 came out at 1920 nM.
Still for that read-out and setting: the figure for `CC(=O)c1cc2c(cc1NC(=O)C(C)N1CCC(O)CC1)OCCO2` (stereo not drawn) [compound 433] is 220 nM.
The same measure, in the same setting: the figure for `COC(=O)c1cc2c(cc1NC(=O)CN1CCC(O)CC1)OCO2` [compound 434] is 248 nM; for `COC(=O)c1cc2c(cc1NC(=O)CN1CCC(OC)CC1)OCO2` [compound 435] it is 419 nM; for `COC(=O)c1cc2c(cc1NC(=O)CN1CCOCC1)OCO2` [compound 436] it is 287 nM.
As for `COC(=O)c1cc2c(cc1NC(=O)CN1CCN(C(=O)OC(C)(C)C)CC1)OCO2` [compound 437], the IC50 is about 1000 nM.
As to `COC(=O)c1cc2c(cc1NC(=O)CN1CCOCC1)OCCO2` [compound 438], the IC50 worked out at 198 nM.
On the same count and under the same terms, the result for `COC(=O)c1cc2c(cc1NC(=O)CN1CCOCC1)CCCC2` [compound 439] reads about 2000 nM; that for `COc1cc2c(cc1NC(=O)CN1CCCCC1)OCO2` [compound 440], 1820 nM; that for `COc1cc2c(cc1NC(=O)C(C)N1CCOCC1)OCO2` (stereo not drawn) [compound 441], 1000 nM.
Still for that read-out and setting: the figure for `COc1cc2c(cc1NC(=O)CN1CCSCC1)OCO2` [compound 442] is 200 nM.
The same measure, in the same setting: the figure for `COc1cc2c(cc1NC(=O)CN1CC(C)OC(C)C1)OCO2` (stereo not drawn) [compound 443] is 322 nM; for `CCOC(=O)C1CN(CC(=O)Nc2cc3c(cc2OC)OCO3)CCO1` (stereo not drawn) [compound 444] it is 505 nM; for `CCOC(=O)C1COCCN1CC(=O)Nc1cc2c(cc1OC)OCO2` (stereo not drawn) [compound 445] it is 526 nM.
On to `COc1cc2c(cc1NC(=O)C(C)N1CCN(C(=O)OC(C)(C)C)CC1)OCO2` (stereo not drawn) [compound 446], for which the IC50 is 190 nM.
On the same count and under the same terms, the result for `CCc1cc2c(cc1NC(=O)CN1CCOCC1)OCO2` [compound 447] reads over 10000 nM; that for `CCc1cc2c(cc1NC(=O)CN1CCN(C(=O)OC(C)(C)C)CC1)OCO2` [compound 448], 700 nM.
For the molecule `COc1cc2c(cc1NC(=O)CN1CCOCC1)CCC2` [compound 449], the IC50 was found to be 804 nM.

Staying with this assay, now noted: Table 5; cells stably expressing hT2R54 and a promiscuous G protein; read-out: hT2R54 IC50.
In the case of `CCNC(=O)C1CCCN(CC(=O)Nc2cc3c(cc2OC)OCO3)C1` (stereo not drawn) [compound 450], the IC50 was found to be 668 nM.
Regarding `COc1cc2c(cc1NC(=O)CN(C)CCC(=O)NCc1ccccc1)OCO2` [compound 451], the IC50 amounted to 406 nM.
Take `COc1cc2c(cc1NC(=O)CN1CCCC(C(=O)NCc3ccccc3)C1)OCO2` (stereo not drawn) [compound 452]: the IC50 amounted to 603 nM.
The same measure, in the same setting: the result for `CNC(=O)C1CCCN(CC(=O)Nc2cc3c(cc2OC)OCO3)C1` (stereo not drawn) [compound 453] reads 969 nM.

The same assay, now with this note: Table 8; read-out: hT2R54 IC50.
For the molecule `CC(=O)c1cc2c(cc1NC(=O)CC1CCN(C(=O)c3ccncc3)CC1)OCO2` [compound 454], the IC50 worked out at 300 nM.
As to `CC(=O)c1cc2c(cc1NC(=O)CC1CCCN(C(=O)c3cc(O)cc(O)c3)C1)OCO2` (stereo not drawn) [compound 455], the IC50 worked out at 6000 nM.
On to `CC(=O)c1cc2c(cc1NC(=O)CC1CCCN(C(=O)c3ccc(O)c(O)c3)C1)OCO2` (stereo not drawn) [compound 456], for which the IC50 was found to be 1300 nM.
On to `CC(=O)c1cc2c(cc1NC(=O)CC1CCCN(C(=O)c3ccc(O)cc3O)C1)OCO2` (stereo not drawn) [compound 457], for which the IC50 was determined as 140 nM.
In the case of `CC(=O)c1cc2c(cc1NC(=O)CC1CCCN(C(=O)c3cc(O)ccc3O)C1)OCO2` (stereo not drawn) [compound 458], the IC50 was 160 nM.
The same measure, in the same setting: the result for `CC(=O)c1cc2c(cc1NC(=O)CC1CCN(C(=O)c3cnn[nH]3)CC1)OCO2` [compound 459] reads 95 nM.
Take `CC(=O)c1cc2c(cc1NC(=O)CC1CCN(C(=O)c3ncn[nH]3)CC1)OCO2` [compound 460]: the IC50 amounted to 300 nM.
On the same count and under the same terms, the result for `CC(=O)c1cc2c(cc1NC(=O)CC1CCN(C(=O)c3cc[nH]n3)CC1)OCO2` [compound 461] reads 150 nM.
The same measure, in the same setting: the result for `CC(=O)c1cc2c(cc1NC(=O)CC1CCN(C(=O)c3ncc[nH]3)CC1)OCO2` [compound 462] reads 30 nM; that for `CC(=O)c1cc2c(cc1NC(=O)CC1CCN(C(=O)c3c[nH]c(C)n3)CC1)OCO2` [compound 463], 400 nM; that for `CC(=O)c1cc2c(cc1NC(=O)CC1CCN(C(=O)c3n[nH]cc3C)CC1)OCO2` [compound 464], 200 nM.

(Values after patent publication US12295396B2, “Antagonists of T2R54 and compositions and uses thereof” (Firmenich Incorporated, priority 2018, dated 2025).)
